PMC4847013, “Pronounced peptide selectivity for melanoma through tryptophan end-tagging” (Scientific Reports, 2016)
Where a name gives a salt, the structure may show the parent alone. Ends that are not written are not given here.

Tests used:
tumor cells = test system: tumor cells; design: method as in PMID 20876209, PMID 20406839; settings: cited from earlier work
From the text: However, since it is taken up by tumor cells through passive diffusion, the overall response rate of doxorubicin is only about 30%[51][52].

erythrocytes = assay: Hemolysis assay; format: cell-based; settings: 5% erythrocytes in PBS pH 7.4, 1 h, 37 °C, peptides 60 or 120 μM, % of 2% Triton X-100, triplicate, Fig. 8b
Experimental: EDTA-blood was centrifuged at 800 g for 10 min, whereafter plasma and buffy coat were removed. The erythrocytes were washed three times and resuspended to 5% in PBS, pH 7.4. The cells were then incubated with end-over-end rotation for 1 h at 37 °C in the presence of peptides (60 or 120 μM). 2% Triton X-100 (Sigma-Aldrich, St. Louis, USA) served as positive control. The samples were then centrifuged at 800 g for 10 min. The absorbance of hemoglobin release was measured at 540 nm and is expressed as % of Triton X-100 induced hemolysis. Results given represent mean values from triplicate measurements.

fibroblasts = assay: Lactate dehydrogenase (LDH) assay; format: cell-based; settings: 48 h, 1% FBS, LDH release relative to 1% Triton X-100, triplicate, Fig. 8a

## COc1cccc2c1C(=O)c1c(O)c3c(c(O)c1C2=O)C[C@@](O)(C(=O)CO)C[C@@H]3O[C@H]1C[C@H](N)[C@H](O)[C@H](C)O1 [doxorubicin, Doxorubicin hydrochloride]
Tumor cells
  overall response rate: about 30%

## GRRPRPRPRP [GRR10]
erythrocytes
  Concentration up to which hemolysis is very low, at the background level of the negative control: at least 120 μM
fibroblasts
  Concentration up to which no significant toxicity is seen (LDH release): at least 50 μM

## GRRPRPRPRPWWWW [GRR10W4]
erythrocytes
  Concentration up to which hemolysis is very low, at the background level of the negative control: at least 120 μM
fibroblasts
  Concentration up to which no significant toxicity is seen (LDH release): at least 50 μM
